Measured values: EP4592291A1, “USE OF PEMETREXED NEAR-INFRARED FLUORESCENT MOLECULE TARGETING ALPHA-TYPE FOLATE RECEPTOR AS FLUORESCENT TRACER” (Nanjing Nuoyuan Medical Devices Co., Ltd, priority 2022, dated 2024)

Legend:
[1] = system: cell line A549 with low folate receptor α expression; experiment: Confocal cell imaging of tracer uptake, cell line with low folate receptor α expression; type: cell-based; settings: folate receptor α negative A549 cell, 100 nM tracer, incubated 1 h
Protocol: (§1) 4. In order to verify the effect of the present disclosure, the following verification experiment was conducted: • (1) Use of a pemetrexed near-infrared fluorescent molecule in the aspect of differentiating a tumor with high folate receptor α expression from inflammation, that is, specific recognition of the pemetrexed near-infrared fluorescent molecule on a cell line with high folate receptor α expression: a cell line H1299 with high folate receptor α expression, a cell line A549 with low folate receptor α expression and a cell line RAW264.7 with high folate receptor β expression were selected. The cells were cultured in a Roswell Park Memorial Institute (RPPMI) culture medium containing 10% fetal bovine serum (FBS) and 1% […] in moist air containing 5% CO2 and 95% air at 37°C. The cells were incubated for 1 h in a confocal vessel by utilizing a 100 nM pemetrexed near-infrared fluorescent tracer. The cells after incubation were washed with PBS, stained with DPAI, fixed with paraformaldehyde and then photographed.

[2] = system: non-small cell lung cancer slice with high folate receptor α expression; experiment: Fluorescence of tumor slices, H1299 tumor plus peritonitis mouse model; type: in vivo; settings: H1299 tumor-bearing mouse with peritonitis, FIG. 6
Text: (§2) The establishment of the inflammation model was verified by utilizing immunohistochemistry slices. […] By utilizing different specificities to different folate receptor subtypes, the tumors are effectively differentiated from the inflammatory tissues.

[3] = system: cell line RAW264.7 with high folate receptor β expression; experiment: Confocal cell imaging of tracer uptake, cell line with high folate receptor β expression; type: cell-based; settings: RAW264.7, 100 nM tracer, incubated 1 h
Protocol: as §1

[4] = system: H1299 tumor-bearing mice with high folate receptor α expression; experiment: In vivo near-infrared imaging of tumor-bearing mice, high folate receptor α expression; settings: tail vein injection, dose of 10 nm, after 2 h
Protocol: (§3) (2) The pemetrexed near-infrared fluorescent molecule was used for specifically recognizing non-small lung cancer tissues with high folate receptor α expression: the pemetrexed near-infrared fluorescent tracer was administrated to H1299 and A549 tumor-bearing mice via tail vein injection at a dose of 10 nm. After 2 h, imaging effects were observed through an animal imaging instrument and tissue biological distribution of mice was analyzed.

[5] = system: inflammatory tissue slice with high folate receptor β expression; experiment: Fluorescence of inflammatory tissue slices, H1299 tumor plus peritonitis mouse model; type: in vivo; settings: H1299 tumor-bearing mouse with peritonitis, FIG. 7
Text: as §2

[6] = system: A549 tumor-bearing mice with low folate receptor α expression; experiment: In vivo near-infrared imaging of tumor-bearing mice, low folate receptor α expression; settings: tail vein injection, dose of 10 nm, after 2 h
Protocol: as §3

[7] = system: cell line H1299 with high folate receptor α expression; experiment: Confocal cell imaging of tracer uptake, cell line with high folate receptor α expression; type: cell-based; settings: 100 nM tracer, incubated 1 h
Protocol: as §1

## CC1(C)C(=CC=C2CCCC(C=CC3=[N+](CCCCS(=O)(=O)[O-])c4ccc(S(=O)(=O)O)cc4C3(C)C)=C2Oc2ccc(C[C@H](NC(=O)c3ccc(CCc4c[nH]c5[nH]c(N)nc(=O)c45)cc3)C(=O)O)cc2)N(CCCCS(=O)(=O)O)c2ccc(S(=O)(=O)O)cc21
[1]
  tracer fluorescence in the cell (internalization): not observed
[2]
  fluorescence intensity of tissue slice: relatively high intensity
[3]
  fluorescence in the cell: not detected
[4]
  specific recognition of tumor (imaging effect): capable of specifically recognizing
  tumor background-to-signal ratio: good
[5]
  fluorescence of tissue slice: almost has no fluorescence
[6]
  targeting effect (imaging): not detected
[7]
  tracer fluorescence in the cell (internalization): seen in the entire cytoplasm
